Experiments:
human TASK-1 = human TASK-1 (Homo sapiens, UniProt O14649); test: Inhibition of recombinant TASK-1 in stably transfected CHO cells, KCl-induced depolarization, voltage-sensitive dye (B-2); format: cell-based; parameters: expressed in transfected cells; host or cells: stably transfected CHO cells; conditions: depolarization induced by 40 mM potassium chloride, some mean values from multiple determinations
Procedure: (§1) B-2. Inhibition of Recombinant TASK-1 and TASK-3 In Vitro
(§2) The investigations on the inhibition of the recombinant TASK-1 and TASK-3 channels were conducted using stably transfected CHO cells. The compounds of the invention were tested here with administration of 40 mM of potassium chloride in the presence of a voltage-sensitive dye using the method described in detail in the following references [Whiteaker et al., Validation of FLIPR membrane potential dye for high-throughput screening of potassium channel modulators, J. Biomol. Screen. 6 (5), 305-312 (2001); Molecular Devices FLIPR Application Note: Measuring membrane potential using the FLIPR® membrane potential assay kit on Fluorometric Imaging Plate Reader (FLIPR®) systems, http://www.moleculardevices.com/reagents-supplies/assay-kits/ion-channels/flipr-membrane-potential-assay-kits]. The activity of the test substances was determined as their ability to inhibit a depolarization induced in the recombinant cells by 40 mM potassium chloride. The concentration which can block half of this depolarization is referred to as IC50).
(§3) Table 2 below lists the IC50 values from this assay determined for individual working examples of the invention (some as mean values from multiple independent individual determinations): […]

human TASK-3 = human TASK-3 (Homo sapiens, UniProt Q9NPC2); test: Inhibition of recombinant TASK-3 in stably transfected CHO cells, KCl-induced depolarization, voltage-sensitive dye (B-2); format: cell-based; parameters: expressed in transfected cells; host or cells: stably transfected CHO cells; conditions: depolarization induced by 40 mM potassium chloride, some mean values from multiple determinations
Procedure: as §1, §2, §3

Chain of human TASK-3 (Q9NPC2 whole entry): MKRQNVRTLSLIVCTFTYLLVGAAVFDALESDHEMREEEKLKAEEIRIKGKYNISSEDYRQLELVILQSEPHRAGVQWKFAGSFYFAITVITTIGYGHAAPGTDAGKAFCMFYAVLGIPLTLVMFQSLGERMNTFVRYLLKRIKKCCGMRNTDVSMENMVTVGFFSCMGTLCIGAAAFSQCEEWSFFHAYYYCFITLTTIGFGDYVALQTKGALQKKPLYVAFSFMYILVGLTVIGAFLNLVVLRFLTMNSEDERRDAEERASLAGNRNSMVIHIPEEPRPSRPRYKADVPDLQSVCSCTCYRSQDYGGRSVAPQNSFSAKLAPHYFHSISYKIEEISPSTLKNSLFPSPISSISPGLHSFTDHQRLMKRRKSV
Chain of human TASK-1 (O14649 whole entry): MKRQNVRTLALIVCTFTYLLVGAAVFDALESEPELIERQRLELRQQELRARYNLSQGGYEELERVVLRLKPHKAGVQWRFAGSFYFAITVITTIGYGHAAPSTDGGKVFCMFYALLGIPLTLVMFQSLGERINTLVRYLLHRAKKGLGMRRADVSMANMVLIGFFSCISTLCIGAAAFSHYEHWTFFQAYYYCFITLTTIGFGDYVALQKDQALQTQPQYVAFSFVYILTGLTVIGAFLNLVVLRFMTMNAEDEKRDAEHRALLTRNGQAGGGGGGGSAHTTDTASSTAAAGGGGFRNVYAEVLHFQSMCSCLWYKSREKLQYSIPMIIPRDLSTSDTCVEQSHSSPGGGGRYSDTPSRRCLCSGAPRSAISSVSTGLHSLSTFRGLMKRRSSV

SMILES | IC50 (human TASK-1) | IC50 (human TASK-3)
COc1ccc(F)c(C(=O)N2C[C@@H]3CC[C@H]2CN3Cc2c(-c3ccc(Cl)cc3)nc3ccccn23)n1 (single isomer, unassigned; enantiomer 1) [Example 23] | 790 nM | 170 nM
COc1ccc(Cl)c(C(=O)N2CC3CCC2CN3Cc2c(-c3ccc(Cl)cn3)nc3ccccn23)n1 (single isomer, unassigned; enantiomer 1) [Example 25, (3-Chloro-6-methoxypyridin-2-yl)(5-{[2-(5-chloropyridin-2-yl)imidaz[1,2-a]pyridin-3-yl]methyl}-2,5-diazabicyclo[2.2.2]oct-2-yl)methanone (enantiomer 1)] | 120 nM | 5.6 nM
O=C(c1cccc(OC(F)F)n1)N1CC2CCC1CN2Cc1c(-c2ccc(Cl)cn2)nc2ccccn12 (single isomer, unassigned; enantiomer 1) [Example 200, (5-{[2(5-Chloropyridin-2-yl)imidazo[1,2-a]pyridin-3-yl]methyl}-2,5-diazabicyclo[2.2.2]oct-2-yl)[6-(difluoromethoxy)pyridin-2-yl]methanone (enantiomer 1)] | 877 nM | 75 nM
CC(C)(C)OC(=O)N1C2COCC1CN(Cc1c(-c3ccc(Cl)cc3)nc3ccccn13)C2 [Example 4, tert-Butyl 7-{[2-(4-chlorophenyl)imidazo[1,2-a]pyridin-3-yl]methyl}-3-oxa-7,9-diazabicyclo[3.3.1]nonane-9-carboxylate] | 560 nM | 43 nM
CC(C)(C)OC(=O)N1CC2CCC(C1)N2Cc1c(-c2ccc(Br)cc2)nc2ccccn12 [Example 5] | 200 nM | 150 nM
CC(C)(C)OC(=O)N1CC2CCC(C1)N2Cc1c(-c2ccc(Cl)cc2)nc2ccccn12 [Example 6] | 394 nM | 410 nM
CC(C)(C)OC(=O)N1C2CCC1CN(Cc1c(-c3ccc(Cl)cc3)nc3ccccn13)C2 [Example 10] | 1090 nM | 230 nM
CC(C)(C)OC(=O)N1C2CCC1CN(Cc1c(-c3ccc(Br)cc3)nc3ccccn13)C2 [Example 11] | 1400 nM | 940 nM
CC(C)c1ccc(-c2nc3ccccn3c2CN2CC3CCC(C2)N3C(=O)OC(C)(C)C)cc1 [Example 12] | 3000 nM | 8300 nM
CC(C)(C)OC(=O)N1C2CCC1CN(Cc1c(-c3ccc(Cl)cn3)nc3ccccn13)C2 [Example 14] | 5100 nM | 860 nM
COc1ccc(F)c(C(=O)N2C3COCC2CN(Cc2c(-c4ccc(Cl)cc4)nc4ccccn24)C3)n1 [Example 30, (7-{[2-(4-Chlorophenyl)imidazo[1,2a]pyridin-3-yl]methyl}-3-oxa-7,9-diazabicyclo[3.3.1]non-9-yl)(3-fluoro-6-methoxypyridin-2-yl)methanone] | 770 nM | 21 nM
O=C(c1cccc(OC2CCC2)n1)N1C2COCC1CN(Cc1c(-c3ccc(Cl)cc3)nc3ccccn13)C2 [Example 31, (7-{[2-(4-Chlorophenyl)imidazo[1,2-a]pyridin-3-yl]methyl}-3-oxa-7,9-diazabicyclo[3.3.1]non-9-yl)[6-(cyclobutyloxy)pyridin-2-yl]methanone] | 310 nM | 26 nM
COc1ccc(Cl)c(C(=O)N2C3COCC2CN(Cc2c(-c4ccc(Cl)cc4)nc4ccccn24)C3)n1 [Example 32, (3-Chloro-6-methoxypyridin-2-yl)(7-{[2-(4-chlorophenyl)imidazo[1,2-a]pyridin-3-yl]methyl}-3-oxa-7,9-diazabicyclo[3.3.1]non-9-yl)methanone] | 270 nM | 9.6 nM
O=C(c1ccccc1F)N1CC2CCC1CN2Cc1c(-c2ccc(Cl)cn2)nc2ccccn12 (centres unmarked) [Example 64] | 280 nM | 17 nM
COc1cccc(C(=O)N2CC3CCC2CN3Cc2c(-c3ccc(Cl)cn3)nc3ccccn23)n1 (centres unmarked) [Example 65] | 2000 nM | 460 nM
O=C(c1ccccc1F)N1C2COCC1CN(Cc1c(-c3ccc(Cl)cc3)nc3ccccn13)C2 [Example 69] | 870 nM | 101 nM
COc1cccc(C(=O)N2C3COCC2CN(Cc2c(-c4ccc(Cl)cc4)nc4ccccn24)C3)c1 [Example 70] | 1900 nM | 160 nM
O=C(C1CCCC1)N1C2COCC1CN(Cc1c(-c3ccc(Cl)cc3)nc3ccccn13)C2 [Example 71] | 130 nM | 24 nM
O=C(c1cccc(OC(F)(F)F)c1)N1C2COCC1CN(Cc1c(-c3ccc(Cl)cc3)nc3ccccn13)C2 [Example 72] | 2000 nM | 120 nM

SMILES | IC50 (human TASK-1) | IC50 (human TASK-3)
CC(C)c1ccccc1C(=O)N1C2COCC1CN(Cc1c(-c3ccc(Cl)cc3)nc3ccccn13)C2 [Example 73] | 160 nM | 9.6 nM
COc1ccc(Cl)c(C(=O)N2C3COCC2CN(Cc2c(-c4ccc(Cl)cc4)nc4ccccn24)C3)c1 [Example 74] | 330 nM | 23 nM
COc1ccc(F)cc1C(=O)N1C2COCC1CN(Cc1c(-c3ccc(Cl)cc3)nc3ccccn13)C2 [Example 75] | 380 nM | 30 nM
CC(C)c1cccc(C(=O)N2C3COCC2CN(Cc2c(-c4ccc(Cl)cc4)nc4ccccn24)C3)c1 [Example 76] | 240 nM | 14 nM
O=C(c1cccc(OCC(F)(F)F)n1)N1C2COCC1CN(Cc1c(-c3ccc(Cl)cc3)nc3ccccn13)C2 [Example 77] | 810 nM | 44 nM
O=C(C1CCOC1)N1C2COCC1CN(Cc1c(-c3ccc(Cl)cc3)nc3ccccn13)C2 (centres unmarked) [Example 78] | 1600 nM | 65 nM
O=C(c1cccc(Cl)c1)N1C2COCC1CN(Cc1c(-c3ccc(Cl)cc3)nc3ccccn13)C2 [Example 79] | 1000 nM | 190 nM
O=C(c1cccc(OC(F)(F)F)n1)N1C2COCC1CN(Cc1c(-c3ccc(Cl)cc3)nc3ccccn13)C2 [Example 80] | 310 nM | 15 nM
COc1ccc(C)c(C(=O)N2C3COCC2CN(Cc2c(-c4ccc(Cl)cc4)nc4ccccn24)C3)n1 [Example 81] | 520 nM | 25 nM
O=C(c1ccccc1F)N1CC2CCC(C1)N2Cc1c(-c2ccc(Br)cc2)nc2ccccn12 [Example 82] | 230 nM | 420 nM
COc1cccc(C(=O)N2CC3CCC(C2)N3Cc2c(-c3ccc(Br)cc3)nc3ccccn23)n1 [Example 83] | 134 nM | 14 nM
COc1cccc(C(=O)N2CC3CCC(C2)N3Cc2c(-c3ccc(Br)cc3)nc3ccccn23)c1 [Example 84] | 1100 nM | 400 nM
O=C(C1CCCC1)N1CC2CCC(C1)N2Cc1c(-c2ccc(Br)cc2)nc2ccccn12 [Example 85] | 520 nM | 53 nM
O=C(c1ccccc1F)N1CC2CCC(C1)N2Cc1c(-c2ccc(Cl)cc2)nc2ccccn12 [Example 87] | 583 nM | 160 nM
Cc1ccc(F)cc1C(=O)N1CC2CCC(C1)N2Cc1c(-c2ccc(Cl)cc2)nc2ccccn12 [Example 88] | 766 nM | 210 nM
COc1ccc(F)cc1C(=O)N1CC2CCC(C1)N2Cc1c(-c2ccc(Cl)cc2)nc2ccccn12 [Example 89] | 827 nM | 220 nM
Cc1ccccc1C(=O)N1CC2CCC(C1)N2Cc1c(-c2ccc(Cl)cc2)nc2ccccn12 [Example 90] | 958 nM | 79 nM
COc1ccccc1C(=O)N1CC2CCC(C1)N2Cc1c(-c2ccc(Cl)cc2)nc2ccccn12 [Example 91] | 1350 nM | 89 nM

Reference: patent publication US20210024545A1, “SUBSTITUTED DIAZAHETERO-BICYCLIC COMPOUNDS AND THEIR USE” (Bayer Aktiengesellschaft, priority 2016, published 2021)
